# Data reported in patent US8030314B2, “Use of 2h-benzimidazol-2-one, 1,3-dihydro-1-(2{4-[3-(trifluoromethyl)phenyl]-1-piperazinyl}ethyl)-and its physiologically acceptable acid addition salts” (priority 2001, dated 2011).
# Columns and labels:
# [1] = tested on: 5-HT inhibitory response (forskolin-stimulated cAMP accumulation); conditions: rat cortex; read-out: reduced forskolin-stimulated cAMP accumulation (EC50); cited from earlier work
# 5-HT-induced PI turnover = conditions: rat cortex; read-out: antagonized 5-HT-induced PI turnover (Ki); cited from earlier work
# rat cortical firing rate = conditions: in vivo; cited from earlier work
# tardive dyskinesias = assay: persistent tardive dyskinesia model in baboons; assay type: in vivo; conditions: baboons with persistent tardive dyskinesia induced by a haloperidol derivative for 41 weeks
# Text: The clinical appearance of levodopa-induced dyskinesias and of tardive dyskinesias are very often similar. […] dyskinesias are frequently observed in chronic schizophrenic patients after long-term treatment with neuroleptics. Recently an animal model of tardive dyskinesia was developed by Eyles at al. 2000. Persistent tardive dyskinesias were induced in 6 baboons by application of a derivative of haloperidol for 41 weeks until the animals developed abnormal orofacial signs that were consistent with tardive dyskinesia. These symptoms persisted during the drug-free period. The extent of dyskinesias was assessed by using a score derived fromt that applied in humans (Abnormal Involuntary Movement Scale). There was a significant improvement of dyskinesias by more than 50% after application of flibanserin. That means that flibanserin is also helpful in the treatment of tardive dyskinesia in chronic schizophrenic patients.
# [2] = tested on: cultured dopaminergic cells (from fetal rat mesencephalic tissue); assay: survival of cultured dopaminergic cells exposed to 6-hydroxydopamine; assay type: cell-based; conditions: toxin (6-hydroxydopamine) co-administered with flibanserin
# Procedure: The reason of developing Parkinson's disease is a chronic process leading to a loss of dopaminergic neurons in a certain area of the EPS (substantia nigra). That process may be simulated in an experiment using cultured dopaminergic cells (from fetal rat mesencephalic tissue) which are exposed to a selective toxin (6-hydroxydompamine). The experiments were conducted in accordance with the method of Michel and Hefti, 1990. When the toxin was added to the cell culture medium the survival time of the neurons was markedly diminished. […] This indicates additionally neuroprotective properties of flibanserin. On the basis of these experiments it can be expected that patients treated with flibanserin will take benefit from said neuroprotective effect by slowing down or stopping the progression of the disease . Moreover, if flibanserin is given in early stages of the disease, a steady process leading to more severe stages may be postponed or even avoided. In particular, the occurrence of levodopa-induced dyskinesias can be prevented. In-so-far, a synergistic effect of the common administration of conventional anti-Parkinson drugs along with flibanserin in the treatment of Parkinson's disease is to be expected as increased “ON”-periods and decreased “OFF”-periods may be obtained.
# [3] = tested on: levodopa-induced dyskinesias; assay: levodopa-induced dyskinesias in MPTP-treated common marmosets; assay type: in vivo, common marmosets (callithrix jacchus)
# Procedure: In order to investigate the efficacy of flibanserin in the treatment of levodopa-induced dyskinesias, experiments in a primate model of Parkinson's disease were performed. 6 common marmosets (callithrix jacchus) that developed chronical Parkinsonian motor deficits after MPTP administration were treated orally with levodopa plus carbidopa for 3 weeks according to the procedure described by Pearce et al. (1995). […] The severity of dyskinesias was measured by assessing the extent of choreic and dystonic movements in all parts of the body.
smiles,measurement,setting,value
"O=c1[nH]c2ccccc2n1CCN1CCN(c2cccc(C(F)(F)F)c2)CC1 [flibanserin, 2H-benzimidazol-2-one, 1,3-dihydro-1-(2-{4-[3-(trifluoromethyl)phenyl]-1-piperazinyl}ethyl)-]",EC50,[1],913 nM
same,Ki,5-HT-induced PI turnover,113 nM
same,inhibition of rat cortical firing rate,rat cortical firing rate,dose-dependently inhibited rat cortical firing rate
same,improvement of dyskinesias (score derived from Abnormal Involuntary Movement Scale),tardive dyskinesias,more than 50%
same,concentrations at which normal survival times were reached,[2],0.1 to 1 µM
same,survival time of neurons,[2],increased in a concentration-dependent manner
same,effect of levodopa on rigidity and bradykinesia,[3]; flibanserin in addition to levodopa,not weakened
same,severity of dyskinesias (extent of choreic and dystonic movements),"[3]; flibanserin in addition to levodopa, MPTP marmosets treated orally with levodopa plus carbidopa for 3 weeks",significantly reduced said dyskinesias
same,dyskinesia symptoms in monkeys with less severe dyskinesia,[3]; some of the monkeys with less severe dyskinesia,symptoms disappeared entirely
